Source: article PMC8147984, “Effects of Sponge-Derived Alkaloids on Activities of the Bacterial α-D-Galactosidase and Human Cancer Cell α-N-Acetylgalactosaminidase” (Biomedicines, 2021)

What was measured:
[1] = target: T1, α-D-galactosidase (α-PsGal) (Pseudoalteromonas sp. KMM 701, UniProt Q19AX0); test: Inhibitory potency on recombinant α-PsGal (residual activity); type: biochemical; conditions: for Residual activity v/v0 (%) of the α-PsGal: preincubated 30 min, 20 °C, pH 7.0
T1 sequence (Q19AX0 1-710): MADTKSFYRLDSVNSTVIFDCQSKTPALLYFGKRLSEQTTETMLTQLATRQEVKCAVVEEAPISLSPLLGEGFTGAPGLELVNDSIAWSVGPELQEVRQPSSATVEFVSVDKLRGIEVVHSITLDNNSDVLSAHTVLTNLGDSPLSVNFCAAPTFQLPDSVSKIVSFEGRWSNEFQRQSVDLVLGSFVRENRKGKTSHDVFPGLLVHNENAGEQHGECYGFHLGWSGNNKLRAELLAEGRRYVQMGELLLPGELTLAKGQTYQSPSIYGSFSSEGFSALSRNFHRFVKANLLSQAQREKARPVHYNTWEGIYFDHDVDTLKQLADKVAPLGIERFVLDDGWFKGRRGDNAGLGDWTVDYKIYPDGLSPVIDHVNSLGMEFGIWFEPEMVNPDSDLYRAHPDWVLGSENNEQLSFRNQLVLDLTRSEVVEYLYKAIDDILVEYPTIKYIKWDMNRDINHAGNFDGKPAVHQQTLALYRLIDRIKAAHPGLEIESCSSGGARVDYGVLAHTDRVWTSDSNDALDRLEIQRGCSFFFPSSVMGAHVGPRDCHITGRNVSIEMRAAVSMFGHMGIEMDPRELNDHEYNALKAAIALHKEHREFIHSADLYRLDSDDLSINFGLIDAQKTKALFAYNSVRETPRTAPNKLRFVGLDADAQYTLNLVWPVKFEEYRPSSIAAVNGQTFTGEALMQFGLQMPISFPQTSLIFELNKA
Description: The recombinant wild-type α-D-galactosidase (α-PsGal) was produced as described earlier. The plasmid DNA pET-40b(+) containing insertion of the gene from the marine bacterium Pseudoalteromonas sp. KMM 701 encoding α-PsGal was transformed in the Escherichia coli strain Rosetta (DE3). Heterological expression was carried out at optimal conditions as described earlier. Purification of the recombinant […] was performed, according to described procedures. The purification quality was controlled by 12% Laemmli-SDS-PAGE-electrophoresis.
(§1) The activity of α-PsGal and α-NaGalase were determined by increasing the amount of p-nithrophenol (pNP). To assay the α-NaGalase activity 0.05 mL of cell extract and 0.1 mL of substrate pNPNA-α-Gal (8.8 mM) in 0.05 M sodium citrate buffer, pH 5.0 were placed in cells of 96-well plate and incubated at 37 °C for 30 min. The mixtures containing 0.05 mL of an enzyme solution and 0.1 mL of a substrate solution (3.3 mM) in 0.05 M sodium phosphate buffer (pH 7.0) were incubated at 20 °C during 5 min for determination of α-PsGal standard activity. The reactions were stopped by the addition of 0.15 mL of 1 M Na2CO3 solution.
Absorbance was measured at 400 nm. Results were read with a computer program Gen5 and treated with ExCel computer program. The unit of standard activity (U) was defined as the amount of the enzyme catalyzing the formation of 1 µmol of p-nitrophenol (ε400 = 18,300 M^−1 cm^−1) per 1 min under the conditions indicated. Specific activity (A) was calculated as the enzyme activity (U) per 1 mg of protein. All calculations were based on reactions with consumption of 10% of the chromogenic substrate. The protein concentrations were estimated by the Bradford method with BSA as a standard. Residual activity (%) was calculated with formula: Residual activity (%) = v/v0 ×100, where v is the initial reaction rate of enzymes under the action of an inhibitor or other factors, v0 is the initial reaction rate of enzymes in the absence of the influence of any factors. Buffer solutions of α-PsGal (0.1 U/mL) and α-NaGalase (0.01 U/mL) were used in the further experiments.
In the control sample, 5 μL of water or 2 μL of EtOH were added to 25 μL of enzyme solution. The enzyme reaction was initiated by adding 120 μL of the substrate pNP-α-Gal (3.3 mM) for α-PsGal or pNPNA-α-Gal (8.8 mM) for α-NaGalase in the respective buffer solutions. After 10 min for α-PsGal or 60 min for α-NaGalase the reaction was stopped by adding 150 μL of 1 M Na2CO3. The amount of pNP was quantified by spectrophotometric detection at 400 nm. Results were evaluated as the percent of residual activity as described above.

[2] = system: α-NaGalase in human colorectal adenocarcinoma cell line DLD-1; test: Residual α-NaGalase activity (expression) in lysate of DLD-1 cells treated with alkaloids; type: cell-based; conditions: DLD-1 cells treated with 5 μM for 24 h
Description: DLD-1cells (5.0 × 10^5) were seeded in […] for 24 h at 37 °C in a 5% CO2 incubator. Then the cells were treated with compounds 1–9 at concentrations ranging from 0 to 20 μM for an additional 24 h. Then the cells were harvested using 0.02% EDTA, after this 3 mL of cold 15 mM Tris–HCl (pH 7.0) was added.
Every 3–4 days cells were rinsed in phosphate buffered PBS, detached from the tissue culture flask by 1× trypsin/EDTA solution, harvested with RPMI-1640 medium and centrifuge at 500 rpm for 3 min. The culture media was discarded and cells pellet was resuspended in EDTA/Tris solution and frozen at −80 °C.
Frozen lysates of cancer cells in the 15 mM Tris buffer, pH 7.0 containing 0.02% EDTA, defrosted and sonicated 10 times during 1 min with a break of 1 min. To remove the cellular detritus, the cell homogenate was centrifuged at 4 °C, 10,000 rpm, 30 min. The supernatant proteins were precipitated with 35% ammonium sulfate, kept during four hours at 4 °C to form a pellet. The protein pellet was collected by centrifugation (4 °C, 10,000 rpm, 30 min) and dissolved in 0.05 M sodium citrate buffer, pH 5.0. The supernatant proteins were precipitated with 75% ammonium sulfate, kept overnight at 4 °C to form a pellet. The protein pellet was collected by centrifugation (4 °C, 10,000 rev/min, 30 min) and dissolved in 0.05 M sodium citrate buffer, pH 5.0. Both extracts were dialyzed against the same buffer, centrifuged to separate the insoluble precipitate. α-NaGalase activity was tested in both extracts and was found only in the protein fraction precipitated with 75% ammonium sulfate. This supernatant was used in further work as partly purified enzyme. The purification quality was controlled by 12% Laemmli-SDS-PAGE-electrophoresis.
as §1, with “The reactions were stopped by the addition of 0.15 mL of 1 M Na2CO3 solution.” left out
Absorbance was measured at 400 nm. Results were read with a computer program Gen5 and treated with ExCel computer program. […] Specific activity (A) was calculated as the enzyme activity (U) per 1 mg of protein. […] Residual activity (%) was calculated with formula: Residual activity (%) = v/v0 ×100, where v is the initial reaction rate of enzymes under the action of an inhibitor or other factors, v0 is the initial reaction rate of enzymes in the absence of the influence of any factors. […]

[3] = system: DLD-1 cells; test: MTS cytotoxic activity assay on DLD-1 cells; type: cell-based, human; conditions: for cytotoxicity against DLD-1 cells: dose up to 20 μM
Description: DLD-1 cells (8 × 10^3/200 μL) were seeded in 96-well plates for 24 h at 37 °C in a 5% CO2 incubator. The cells were treated with compounds 1–9 at concentrations ranging from 0 to 20 μM for an additional 24 h. Subsequently, cells were incubated with 15 μL MTS (3-(4,5-dimethylthiazol-2-yl)-5-(3-carboxymethoxyphenyl)-2-(4-sulfophenyl)-2H-tetrazolium) reagent for 3 h, and the absorbance in each well was measured at 490/630 nm using a microplate reader “Power Wave XS” (Bio Tek, Winooski, VT, USA). All the experiments were repeated three times, and the mean absorbance values were calculated. The results are expressed in absorbance by the compound’s treatment compared to the non-treated cells (control 1) and the compounds in medium (control 2). All the experiments were made in triplicate.

[4] = target: T1, α-D-galactosidase (α-PsGal); test: Irreversibility of α-PsGal inhibition (dialysis experiment); type: biochemical; conditions: dialysis against buffer for 60 h at 4 °C; activity did not recover
Description: To determine the reversibility of the α-PsGal activity inhibition by alkaloids 2, 3, 8, and 9 15 µL of 0.625 mM aqueous solution of the compounds 2 and 3 or 6 µL of 2.5 mM ethanol solution of the compound 8 and 9 were added to 75 µL of the enzyme solution in 0.05 M sodium phosphate buffer (pH 7.0). After 30 min of the mixture incubation the aliquot of 30 µL was taken and 120 µL of 3.3 mM pNPG solution were added to initiate the reaction; the reaction was stopped by addition of 150 µL of 1M Na2CO3. The α-D-galactosidase activity was determined, as described above. The remaining reaction mixture was dialyzed against 1 L of 0.02 M sodium phosphate buffer (pH 7.0) for 60 h at 4 °C. The buffer was changed 3 times during the dialysis. The enzyme activity was determined, as described above. A sample of α-PsGal treated with H2O or EtOH in the absence of the inhibitor (75 µL of the enzyme solution and 15 µL of H2O or 6 µL of EtOH, respectively) was dialyzed and used as a control for determination of the initial activity. The experiment was carried out in two replicates. The residual activity was calculated as described above.

[5] = target: T1, α-D-galactosidase (α-PsGal); test: Kinetic studies of α-PsGal inactivation; type: biochemical; conditions: pH 7.0, 20 °C; for Ki / kinact: Hill equation fit; for Ki: read-out: Ki, equilibrium inhibition constant; for kinact: read-out: kinact, inactivation rate constant (converted)
Description: The kinetic parameters Ki and kinact were determined by classic methods. The inactivation of α-PsGal was monitored by incubation of the enzyme with different concentrations of alkaloids in […] sodium phosphate buffer, pH 7.0, at 20 °C in total volume of 30 µL (25 µL and 5 µL of α-PsGal and alkaloids, respectively), which were placed in cells of 96 cells plate. After preincubation of enzyme-inhibitor mixture for 0.5, 5, 10, 15, 20, 25, or 30 min […] the fraction of remaining enzyme activity was measured as a function of time by addition to the inactivation mixture 120 µL of a solution of pNP-α-Gal (3.3 mM). The pseudo-first-order rate constant of inactivation (kobs) was determined for each inactivator concentration as the slope of the v/v0 dependence on the incubation time in semilogarithmic coordinates. The Excel software was used for these calculations. The second order rate constants for the inactivation process were determined by fitting the dependences of the kobs values on the concentration of the inactivators to the Hill or Michaelis–Menten equations. An analysis of the graphs and the choice of models for calculation of inhibition constants (Ki, mM) and inactivation rate constants (kinact, min^–1) were performed with the Origin computer software.

Structure (SMILES)	inhibitory activity against α-PsGal (in words) [1]	Residual activity v/v0 (%) of the α-PsGal ([1]; compound concentration 1.48 mM)	Residual activity v/v0 (%) of the α-PsGal ([1]; compound concentration 1.67 mM)	expression of the enzyme α-NaGalase (residual activity of lysate cell α-NaGalase, control 100%) [2] [%]	irreversibility of α-PsGal inhibition [4]	n, Hill's coefficient of cooperativity [5]	Ki [5] [µM]	kinact [5] [s⁻¹]	other results
CN1CCc2cn(C)c3c2C1=CC(=O)C3=O [Compound 5, damirone A]	no notable activity	87 ^2%	–	–	–	–	–	–	–
COc1cc2ccnc3c2c(c1O)N(C)C=C3 [Compound 2, isoaaptamine]	–	–	0 ^1%	64	irreversibly inactivate	2.17	2.7 ± 0.42	0.002	cytotoxicity against DLD-1 cells ([3]; 24 h): weakly cytotoxic; decrease in cell viability ([3]; DLD-1 cells, 24 h, at 20 μM): 20%; n, Hill's coefficient of cooperativity ([5]; listed as isoaaptamine (2)): 2.17 ± 0.55
COc1cc2ccnc3c2c(c1O)NC=C3 [Compound 3, 9-demethylaaptamine]	–	–	0 ^1%	57	irreversibly inactivate	0.84	300 ± 77	0.00153	IC50 ([3]; Homo sapiens, DLD-1, 24 h, read-out: concentration that caused a 50% reduction in cell viability (IC50) of DLD-1 cells): 17 ± 0.2 µM; n, Hill's coefficient of cooperativity ([5]; listed as 9-demethylaaptamine(3)): 0.84 ± 0.12
COc1cc2c3c(cc[n+](C)c3c1[O-])NC(=O)C2=O [Compound 4, aaptanone]	no notable activity	–	100 ^1%	–	–	–	–	–	–
CN1CCc2c[nH]c3c2C1=CC(=O)C3=O [Compound 6, damirone B]	no notable activity	87 ^2%	–	52	–	–	–	–	–
Cn1cc2c3c1C(=O)C(N/C=C/c1ccc(O)cc1)=CC3=[N+](C)CC2 [Compound 8, makaluvamine G]	low inhibitory activity	28 ^2%	–	–	irreversibly inactivate	2.5	411 ± 86	0.00132	n, Hill's coefficient of cooperativity ([5]; listed as makaluvamine G (8)): 2.5 ± 0.97
CNCCc1cn(C)c2c1C(=O)c1c(-c3ccc(O)cc3)c[nH]c1C2=O [Compound 9, zyzzyanone A]	low inhibitory activity	0 ^2%	–	–	irreversibly inactivate	4.1	105 ± 9	0.000617	n, Hill's coefficient of cooperativity ([5]; listed as zyzzyanone A (9)): 4.10 ± 1.42
Cn1cc2c3c1C(=O)C(N)=CC3=[N+](C)CC2 [Compound 7, makaluvamine H]	no notable activity	67 ^2%	–	50	–	–	–	–	–
COc1cc2ccnc3c2c(c1OC)NC=C3 [Compound 1, aaptamine]	no notable activity	–	79 ^1%	–	–	–	–	–	cytotoxicity against DLD-1 cells ([3]; 24 h): non-cytotoxic
